Results on 27 compounds are retold here after ChEMBL document CHEMBL3351476, “The discovery of I-BET726 (GSK1324726A), a potent tetrahydroquinoline ApoA1 up-regulator and selective BET bromodomain inhibitor” (J Med Chem, 2014).

In data set [1] the test system is HepG2. Briefly: Upregulation of ApoA1 in human HepG2 cells after 16 hrs by luciferase reporter assay relative to control. The format is functional.
For data set [2], the target named is Bromodomain-containing protein 2 (Homo sapiens, UniProt P25440). Briefly: Displacement of biotinylated tetra-acetylated histone H4 from His6-tagged BRD2 (1 to 473 aa) (unknown origin) after 1 hr by TR-FRET assay.
Sequence of Bromodomain-containing protein 2 (P25440 whole entry, the tested form may be a part): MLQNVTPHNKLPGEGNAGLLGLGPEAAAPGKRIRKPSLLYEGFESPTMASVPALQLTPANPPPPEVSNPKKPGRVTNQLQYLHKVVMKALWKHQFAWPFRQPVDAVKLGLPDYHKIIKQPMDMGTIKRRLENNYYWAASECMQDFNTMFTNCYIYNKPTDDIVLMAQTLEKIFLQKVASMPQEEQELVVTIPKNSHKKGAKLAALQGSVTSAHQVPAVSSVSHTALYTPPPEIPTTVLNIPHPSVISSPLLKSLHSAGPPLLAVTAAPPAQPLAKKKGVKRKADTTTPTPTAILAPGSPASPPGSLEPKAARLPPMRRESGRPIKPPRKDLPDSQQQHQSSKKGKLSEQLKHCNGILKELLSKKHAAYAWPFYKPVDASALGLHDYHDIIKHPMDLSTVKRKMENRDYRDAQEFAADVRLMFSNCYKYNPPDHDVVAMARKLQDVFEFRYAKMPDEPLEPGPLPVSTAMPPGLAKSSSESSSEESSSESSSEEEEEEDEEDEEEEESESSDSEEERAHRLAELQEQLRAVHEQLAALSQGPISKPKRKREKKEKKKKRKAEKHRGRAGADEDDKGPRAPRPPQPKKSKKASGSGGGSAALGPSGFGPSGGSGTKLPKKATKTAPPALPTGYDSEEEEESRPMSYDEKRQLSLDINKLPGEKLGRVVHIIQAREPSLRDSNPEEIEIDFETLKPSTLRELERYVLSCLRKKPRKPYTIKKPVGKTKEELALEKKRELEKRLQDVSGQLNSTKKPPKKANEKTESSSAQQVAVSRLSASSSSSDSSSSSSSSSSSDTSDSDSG
Data set [3] concerns the target Bromodomain-containing protein 3 (Homo sapiens, UniProt Q15059). Briefly: Displacement of biotinylated tetra-acetylated histone H4 from His6-tagged BRD3 (1 to 475 aa) (unknown origin) after 1 hr by TR-FRET assay.
In data set [4] the target is Bromodomain-containing protein 4 (Homo sapiens, UniProt O60885). Briefly: Displacement of biotinylated tetra-acetylated histone H4 from His6-tagged BRD4 (1 to 477 aa) (unknown origin) after 1 hr by TR-FRET assay. A general note: In TR-FRET formats the signal depends on donor and acceptor labels being close together.
A short description of data set [5]: Solubility of the compound in fasted state simulated intestinal fluid at 125 ug/ml after 16 hrs by HPLC analysis. The class given is ADME. The note with it: fasted state simulated intestinal fluid.

Molecules are shown by their SMILES. Values after ≈ are worked out from the molar mass of the structure shown. A value given as a limit tells only on which side of the number the result lay.

A word on the IC50: it is the midpoint of a concentration-inhibition curve. Higher therefore signals a need for much substance. One may read the solubility as the concentration that dissolves in the medium under given conditions. High values mean a readily soluble substance, low ones a poorly soluble substance.

Sequence of Bromodomain-containing protein 3 (Q15059 whole entry, the tested form may be a part): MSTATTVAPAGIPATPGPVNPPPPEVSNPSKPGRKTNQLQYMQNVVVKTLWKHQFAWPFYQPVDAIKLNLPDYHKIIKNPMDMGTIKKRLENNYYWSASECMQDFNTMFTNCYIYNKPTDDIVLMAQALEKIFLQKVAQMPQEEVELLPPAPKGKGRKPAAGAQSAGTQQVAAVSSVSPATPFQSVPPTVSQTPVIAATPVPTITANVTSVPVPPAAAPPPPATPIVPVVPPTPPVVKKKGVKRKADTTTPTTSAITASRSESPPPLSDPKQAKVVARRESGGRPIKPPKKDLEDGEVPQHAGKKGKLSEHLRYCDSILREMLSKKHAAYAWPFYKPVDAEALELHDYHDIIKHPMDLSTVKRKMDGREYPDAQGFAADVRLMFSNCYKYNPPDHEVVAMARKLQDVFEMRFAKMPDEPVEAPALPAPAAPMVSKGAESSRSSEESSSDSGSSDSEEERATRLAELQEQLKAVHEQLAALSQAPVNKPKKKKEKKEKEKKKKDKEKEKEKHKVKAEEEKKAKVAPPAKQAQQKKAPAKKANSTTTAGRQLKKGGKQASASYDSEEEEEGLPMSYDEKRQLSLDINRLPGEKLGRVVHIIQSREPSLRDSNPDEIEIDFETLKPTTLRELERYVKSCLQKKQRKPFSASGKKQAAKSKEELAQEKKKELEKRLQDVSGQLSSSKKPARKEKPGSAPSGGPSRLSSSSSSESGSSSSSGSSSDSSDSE

`CC(=O)N1c2ccc(-c3ccc(CN4CCCCC4)cc3)cc2[C@@H](Nc2ccccc2)C[C@H]1C` returned a pEC170 in data set [1] of 5.9. The IC50 in data set [2], in data set [3] and in data set [4] was 25100 nM throughout.
Take `CC(=O)N1c2ccc(-c3ccc(C(=O)O)cc3)cc2[C@H](Nc2ccc(C)cc2)C[C@@H]1C`: in data set [1], the pEC170 is 8. Moreover, the figures for the IC50 in data set [2], in data set [3] and in data set [4] were 200 nM, 158 nM and 251 nM, respectively.
The compound `CC(=O)N1c2ccc(-c3ccc(C(=O)O)cc3)cc2[C@H](Nc2ccc(Cl)cc2)C[C@@H]1C` (racemic) registered a pEC170 in data set [1] of 7.8. Besides, the IC50 in data set [2] and in data set [3] was 398 nM throughout.
Turning to `CC(=O)N1c2ccc(-c3ccc(C(=O)O)cc3)cc2[C@H](Nc2ccccc2)C[C@@H]1C` (racemic), the pEC170 in data set [1] was 7.3. The 50% inhibitory concentration (IC50) was 631 nM in data set [2], 398 nM in data set [3] and 501 nM in data set [4]. This compound also returned a solubility at 16 h in data set [5] of 118 µg/mL (≈ 295 µM).
For the compound `CC(=O)N1c2ccc(-c3ccccc3)cc2[C@H](Nc2ccccc2)C[C@@H]1C` (racemic), the pEC170 in data set [1] turned out to be 7. For the same compound, the half-maximal inhibitory concentration (IC50) was 794 nM in data set [2], 501 nM in data set [3] and 794 nM in data set [4].
Turning to `CC(=O)N1c2ccc(-c3ccc(C#N)cc3)cc2[C@H](Nc2ccccc2)C[C@@H]1C` (racemic), in data set [1], the pEC170 was 7. The IC50 in data set [2] was 1000 nM; in data set [3] it was 794 nM; in data set [4], 631 nM. In data set [5], this compound returned a solubility at 16 h of 57 µg/mL (≈ 149 µM).
Taken in the same sequence, the figures for `COC(=O)c1ccc(-c2ccc3c(c2)[C@H](Nc2ccccc2)C[C@H](C)N3C(C)=O)cc1` (racemic) were 7.4, 1260 nM, 1000 nM, 1260 nM and 69 µg/mL (≈ 166 µM).
In data set [1], `CC(=O)N1c2ccc(-c3ccc(C(F)(F)F)cc3)cc2[C@H](Nc2ccccc2)C[C@@H]1C` (racemic) yielded a pEC170 of 6.2. The IC50 in data set [2] was 2000 nM; in data set [3] it was 1260 nM; in data set [4], 1000 nM.
Turning to `COc1ccc(-c2ccc3c(c2)[C@H](Nc2ccccc2)C[C@H](C)N3C(C)=O)cc1` (racemic), in data set [1], the pEC170 stood at 7.2. Also, the half-inhibitory concentration (IC50) was 1260 nM in data set [2], 631 nM in data set [3] and 631 nM in data set [4]. The compound further yielded a solubility at 16 h in data set [5] of 92 µg/mL (≈ 238 µM).
`CC(=O)N1c2ccc(-c3ccc(CN4CCCCC4)cc3)cc2[C@H](Nc2ccccc2)C[C@@H]1C` (racemic) showed a pEC170 in data set [1] of 7.9. This compound had a solubility at 16 h in data set [5] of 111 µg/mL (≈ 245 µM).
Compound `CC(=O)N1c2ccc(-c3ccc(CN4CCCCC4)cc3)cc2[C@H](NC=O)C[C@@H]1C` (racemic) gave a pEC170 in data set [1] of 5.3. For the same compound, the values for the half-maximal inhibitory concentration (IC50) in data set [2], in data set [3] and in data set [4] were 15800 nM, 6310 nM and 6310 nM, respectively.
In the case of `CC(=O)N1c2ccc(-c3ccc(CN4CCCCC4)cc3)cc2[C@H](N)C[C@@H]1C` (racemic), the pEC170 in data set [1] is <5. The half-inhibitory concentration (IC50) in data set [2] is 50100 nM; in data set [3], 25100 nM; in data set [4], 25100 nM.
As for `COC(=O)c1ccc(-c2ccc3c(c2)[C@H](Nc2ccc(C(C)(C)C)cc2)C[C@H](C)N3C(C)=O)cc1` (racemic), the pEC170 in data set [1] is 6.9. Also, the IC50 in data set [2] was 501 nM; in data set [3], 501 nM; in data set [4] it was 631 nM.
In data set [1], `CC(=O)N1c2ccc(-c3ccc(C(=O)O)cc3)cc2[C@H](Nc2ccc(S(C)(=O)=O)cc2)C[C@@H]1C` (racemic) displayed a pEC170 of 5.4. For the same compound, the 50% inhibitory concentration (IC50) was 1000 nM in data set [2], 316 nM in data set [3] and 316 nM in data set [4].
Compound `COC(=O)c1ccc(-c2ccc3c(c2)[C@H](Nc2ccc(S(C)(=O)=O)cc2)C[C@H](C)N3C(C)=O)cc1` (racemic) showed a pEC170 in data set [1] of 6. In addition, the values for the IC50 in data set [2], in data set [3] and in data set [4] were 1260 nM, 501 nM and 631 nM, respectively.
Taken in the same sequence, the figures for `CC(=O)N1c2ccc(-c3ccc(C(=O)O)cc3)cc2[C@H](Nc2ccc(C)cc2)C[C@@H]1C` (racemic) were 7.8, 501 nM, 316 nM and 631 nM.
Consider `COC(=O)c1ccc(-c2ccc3c(c2)[C@H](Nc2ccc(F)cc2)C[C@H](C)N3C(C)=O)cc1` (racemic), for which the pEC170 in data set [1] is 7.3. Besides, the half-maximal inhibitory concentration (IC50) was 1580 nM in data set [2], 1000 nM in data set [3] and 794 nM in data set [4].
Taken in the same sequence, the figures for `CC(=O)N1c2ccc(-c3ccc(C#N)cc3)cc2[C@H](Nc2cccc(F)c2)C[C@@H]1C` (racemic) were 6.8, 1260 nM, 794 nM and 1000 nM.
For `COc1cccc(N[C@@H]2C[C@H](C)N(C(C)=O)c3ccc(-c4ccc(C#N)cc4)cc32)c1` (racemic), in data set [1], the pEC170 is recorded as 6.7. In addition, the IC50 is 1580 nM in data set [2], 794 nM in data set [3] and 1000 nM in data set [4].
The matching figures for `COc1cccc(N[C@@H]2C[C@H](C)N(C(C)=O)c3ccc(-c4ccc(C(=O)O)cc4)cc32)c1` (racemic): 7.3, 631 nM, 501 nM and 501 nM.
In data set [1], `COc1ccccc1N[C@@H]1C[C@H](C)N(C(C)=O)c2ccc(-c3ccc(C(=O)O)cc3)cc21` (racemic) came in with a pEC170 of 7.6. The IC50 in data set [2] was 631 nM; in data set [3], 501 nM; in data set [4] it was 631 nM.
`CC(=O)N1c2ccc(-c3ccc(CN4CCCCC4)cc3)cc2[C@H](Nc2ccc(Cl)cc2)C[C@@H]1C` (racemic): the pEC170 in data set [1] is 8. Besides, the figures for the concentration for half-maximal inhibition (IC50) in data set [2], in data set [3] and in data set [4] were 1000 nM, 1260 nM and 1000 nM, respectively.
Regarding `CC(=O)N1c2ccc(-c3cccc(C(=O)O)c3)cc2[C@H](Nc2ccc(Cl)cc2)C[C@@H]1C` (racemic), the pEC170 in data set [1] amounted to 7.4. For the same compound, the figures for the IC50 in data set [2], in data set [3] and in data set [4] were 794 nM, 501 nM and 794 nM, respectively.
In data set [1], `COC(=O)c1cccc(-c2ccc3c(c2)[C@H](Nc2ccc(Cl)cc2)C[C@H](C)N3C(C)=O)c1` (racemic) came in with a pEC170 of 7.2. Besides, the IC50 in data set [2] is 2000 nM; in data set [3], 1000 nM; in data set [4], 1000 nM.
Take `CC(=O)N1c2ccc(-c3ccc(C(N)=O)cc3)cc2[C@H](Nc2ccc(Cl)cc2)C[C@@H]1C` (racemic): the pEC170 in data set [1] worked out at 7.8. Besides, the IC50 in data set [2] is 794 nM; in data set [3], 398 nM; in data set [4], 501 nM.
On to `CC(=O)N1c2ccc(-c3ccccc3C)cc2[C@H](Nc2ccc(Cl)cc2)C[C@@H]1C` (racemic), for which, in data set [1], the pEC170 is reported as 5.6. Further, the IC50 in data set [2] is 3980 nM; in data set [3], 2510 nM; in data set [4], 3980 nM.
`COc1ccc(-c2ccc3c(c2)[C@H](Nc2ccccc2)CCN3C(C)=O)cc1` (racemic) returned a pEC170 in data set [1] of 6.1. The half-inhibitory concentration (IC50) in data set [2] was 6310 nM; in data set [3], 1580 nM; in data set [4] it was 2510 nM.
